In PubChem BioAssay (NCI):
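Test compounds were applied to cells in 96-well plates for 48 hours at 5 doses. At the GI50, growth is halved. TGI denotes the concentration required for complete inhibition of growth.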

Assays:
Assay in all cases: NCI anticancer screen, dose series, 48 h
786-0 renal = test system: 786-0 renal
A498 renal = test system: A498 renal
A549 NSCLC = test system: A549 NSCLC
ACHN renal = test system: ACHN renal
BT-549 breast = test system: BT-549 breast
CAKI-1 renal = test system: CAKI-1 renal
CCRF-CEM leukemia = test system: CCRF-CEM leukemia
COLO 205 colon = test system: COLO 205 colon
DU-145 prostate = test system: DU-145 prostate
EKVX NSCLC = test system: EKVX NSCLC
HCC-2998 colon = test system: HCC-2998 colon
HCT-116 colon = test system: HCT-116 colon
HCT-15 colon = test system: HCT-15 colon
HL-60(TB) leukemia = test system: HL-60(TB) leukemia
HOP-62 NSCLC = test system: HOP-62 NSCLC
HOP-92 NSCLC = test system: HOP-92 NSCLC
HS 578T breast = test system: HS 578T breast
HT29 colon = test system: HT29 colon
IGROV1 ovarian = test system: IGROV1 ovarian
K-562 leukemia = test system: K-562 leukemia
KM12 colon = test system: KM12 colon
LOX IMVI melanoma = test system: LOX IMVI melanoma
M14 melanoma = test system: M14 melanoma
MALME-3M melanoma = test system: MALME-3M melanoma
MCF7 breast = test system: MCF7 breast
MDA-MB-231 breast = test system: MDA-MB-231 breast
MDA-MB-435 = test system: MDA-MB-435
MDA-MB-468 breast = test system: MDA-MB-468 breast
MOLT-4 leukemia = test system: MOLT-4 leukemia
NCI-H226 lung = test system: NCI-H226 lung
NCI-H23 lung = test system: NCI-H23 lung
NCI-H460 lung = test system: NCI-H460 lung
NCI-H522 lung = test system: NCI-H522 lung
NCI/ADR-RES ovarian = test system: NCI/ADR-RES ovarian
OVCAR-3 ovarian = test system: OVCAR-3 ovarian
OVCAR-4 ovarian = test system: OVCAR-4 ovarian
OVCAR-5 ovarian = test system: OVCAR-5 ovarian
OVCAR-8 ovarian = test system: OVCAR-8 ovarian
PC-3 prostate = test system: PC-3 prostate
RPMI-8226 leukemia = test system: RPMI-8226 leukemia
RXF 393 renal = test system: RXF 393 renal
SF-268 CNS = test system: SF-268 CNS
SF-295 CNS = test system: SF-295 CNS
SF-539 CNS = test system: SF-539 CNS
SK-MEL-2 melanoma = test system: SK-MEL-2 melanoma
SK-MEL-28 melanoma = test system: SK-MEL-28 melanoma
SK-MEL-5 melanoma = test system: SK-MEL-5 melanoma
SK-OV-3 ovarian = test system: SK-OV-3 ovarian
SN12C renal = test system: SN12C renal
SNB-19 CNS = test system: SNB-19 CNS
SNB-75 CNS = test system: SNB-75 CNS
SR leukemia = test system: SR leukemia
SW-620 colon = test system: SW-620 colon
T-47D breast = test system: T-47D breast
TK-10 renal = test system: TK-10 renal
U251 CNS = test system: U251 CNS
UACC-257 melanoma = test system: UACC-257 melanoma
UACC-62 melanoma = test system: UACC-62 melanoma
UO-31 renal = test system: UO-31 renal

`COc1ccc2[nH]c(O)c(N=NC(=O)COc3ccc(NC(=O)Nc4ccccc4)cc3)c2c1` gave a GI50 (786-0 renal) of 13.6 µM, a TGI (786-0 renal) of 30.6 µM and a GI50 (A498 renal) of 18.3 µM. For the same molecule, the TGI (A498 renal) was 38.4 µM, the GI50 (A549 NSCLC) was 21.9 µM and the TGI (A549 NSCLC) was 58.4 µM. The GI50 (ACHN renal) was 39.5 µM, the TGI (ACHN renal) was over 100 µM and the TGI (BT-549 breast) was 20.2 µM. It also gave a GI50 (CAKI-1 renal) of 24.3 µM, a TGI (CAKI-1 renal) of 70.1 µM and a GI50 (CCRF-CEM leukemia) of 33.1 µM. For the same molecule, the TGI (CCRF-CEM leukemia) was over 100 µM, the GI50 (COLO 205 colon) was 16.5 µM and the TGI (COLO 205 colon) was 33.5 µM. It also gave a GI50 (DU-145 prostate) of 30.9 µM, a TGI (DU-145 prostate) of over 100 µM and a GI50 (EKVX NSCLC) of 35.3 µM. The TGI (EKVX NSCLC) was over 100 µM, the GI50 (HCC-2998 colon) was 17.5 µM and the TGI (HCC-2998 colon) was 42.8 µM. It also gave a GI50 (HCT-116 colon) of 2.91 µM, a TGI (HCT-116 colon) of 27.5 µM and a GI50 (HCT-15 colon) of over 100 µM. It also gave a TGI (HCT-15 colon) of over 100 µM, a GI50 (HL-60(TB) leukemia) of 29.6 µM and a TGI (HL-60(TB) leukemia) of over 100 µM. For the same molecule, the GI50 (HOP-62 NSCLC) was 18.5 µM, the TGI (HOP-62 NSCLC) was 34.6 µM and the GI50 (HOP-92 NSCLC) was 7.82 µM. It also gave a TGI (HOP-92 NSCLC) of 25.4 µM, a GI50 (HS 578T breast) of 17.3 µM and a TGI (HS 578T breast) of 75.6 µM. It also gave a GI50 (HT29 colon) of 26 µM, a TGI (HT29 colon) of over 100 µM and a GI50 (IGROV1 ovarian) of 22.5 µM. For the same molecule, the TGI (IGROV1 ovarian) was 59.2 µM, the GI50 (K-562 leukemia) was 26.7 µM and the TGI (K-562 leukemia) was over 100 µM. The GI50 (KM12 colon) was 0.684 µM, the TGI (KM12 colon) was 21 µM and the GI50 (LOX IMVI melanoma) was 17 µM. For the same molecule, the TGI (LOX IMVI melanoma) was 36.8 µM, the GI50 (M14 melanoma) was 2.9 µM and the TGI (M14 melanoma) was 21.1 µM. For the same molecule, the GI50 (MALME-3M melanoma) was 14.4 µM, the TGI (MALME-3M melanoma) was 28.4 µM and the GI50 (MCF7 breast) was 17.4 µM. For the same molecule, the TGI (MCF7 breast) was 40.2 µM, the GI50 (MDA-MB-231 breast) was 14.3 µM and the TGI (MDA-MB-231 breast) was 28.6 µM. The GI50 (MDA-MB-435) was 16.3 µM, the TGI (MDA-MB-435) was 35.4 µM and the GI50 (MDA-MB-468 breast) was 11.1 µM. The TGI (MDA-MB-468 breast) was 26.2 µM, the GI50 (MOLT-4 leukemia) was 23.7 µM and the TGI (MOLT-4 leukemia) was over 100 µM. It also gave a GI50 (NCI-H226 lung) of 15 µM, a TGI (NCI-H226 lung) of 34.7 µM and a GI50 (NCI-H23 lung) of 15.8 µM. For the same molecule, the TGI (NCI-H23 lung) was 32.7 µM, the GI50 (NCI-H460 lung) was 15.7 µM and the TGI (NCI-H460 lung) was 41.2 µM. For the same molecule, the GI50 (NCI-H522 lung) was 15.3 µM, the TGI (NCI-H522 lung) was 38.5 µM and the GI50 (NCI/ADR-RES ovarian) was over 100 µM. The TGI (NCI/ADR-RES ovarian) was over 100 µM, the GI50 (OVCAR-3 ovarian) was 17.4 µM and the TGI (OVCAR-3 ovarian) was 35.5 µM. The GI50 (OVCAR-4 ovarian) was 11.1 µM, the TGI (OVCAR-4 ovarian) was 33 µM and the GI50 (OVCAR-5 ovarian) was 18.3 µM. For the same molecule, the TGI (OVCAR-5 ovarian) was 45.4 µM, the GI50 (OVCAR-8 ovarian) was 9.79 µM and the TGI (OVCAR-8 ovarian) was 27.5 µM. For the same molecule, the GI50 (PC-3 prostate) was 14.5 µM, the TGI (PC-3 prostate) was 36.3 µM and the GI50 (RPMI-8226 leukemia) was 58 µM. For the same molecule, the TGI (RPMI-8226 leukemia) was over 100 µM, the GI50 (RXF 393 renal) was 13.6 µM and the TGI (RXF 393 renal) was 32.5 µM. For the same molecule, the GI50 (SF-268 CNS) was 14.3 µM, the TGI (SF-268 CNS) was 34.3 µM and the GI50 (SF-295 CNS) was 18.1 µM. The TGI (SF-295 CNS) was 39.8 µM, the GI50 (SF-539 CNS) was 14.7 µM and the TGI (SF-539 CNS) was 28.2 µM. The GI50 (SK-MEL-2 melanoma) was 16.4 µM, the TGI (SK-MEL-2 melanoma) was 33.4 µM and the GI50 (SK-MEL-28 melanoma) was 16.6 µM. For the same molecule, the TGI (SK-MEL-28 melanoma) was 30.7 µM, the GI50 (SK-MEL-5 melanoma) was 16.9 µM and the TGI (SK-MEL-5 melanoma) was 36.5 µM. It also gave a GI50 (SK-OV-3 ovarian) of 19.6 µM, a TGI (SK-OV-3 ovarian) of 44 µM and a GI50 (SN12C renal) of 16.4 µM. It also gave a TGI (SN12C renal) of 31.7 µM, a GI50 (SNB-19 CNS) of 16.6 µM and a TGI (SNB-19 CNS) of 35.4 µM. It also gave a GI50 (SNB-75 CNS) of 10.7 µM, a TGI (SNB-75 CNS) of 27.3 µM and a GI50 (SR leukemia) of 22.9 µM. For the same molecule, the TGI (SR leukemia) was over 100 µM, the GI50 (SW-620 colon) was 15.2 µM and the TGI (SW-620 colon) was 43.3 µM. The GI50 (T-47D breast) was 15.4 µM, the TGI (T-47D breast) was 31.2 µM and the GI50 (TK-10 renal) was 46.2 µM. It also gave a TGI (TK-10 renal) of over 100 µM, a GI50 (U251 CNS) of 15.7 µM and a TGI (U251 CNS) of 37.6 µM. For the same molecule, the GI50 (UACC-257 melanoma) was 19.5 µM, the TGI (UACC-257 melanoma) was 41.5 µM and the GI50 (UACC-62 melanoma) was 16.3 µM. It also gave a TGI (UACC-62 melanoma) of 30.8 µM, a GI50 (UO-31 renal) of over 100 µM and a TGI (UO-31 renal) of over 100 µM.
